Experimental findings from patent US12042492B2 (priority 2020, dated 2024) are described below.

Entries after “also recorded” stand apart in the source; their conditions may differ.

One assay has as its target T1, BACE1 (Mus musculus, UniProt P56818).
T1 construct: endogenous in cells; host or cells: N2a mouse neuroblastoma cells (ATCC) transfected with mutant APP Swe/Ind cDNA
Nature of the assay: Sandwich ELISA of BACE1 activity in mAPP N2a cells. It is filed as cell-based. The following applies: mAPP cells treated with ligand 1 relative to untreated mAPP cells; P=0.001. From the text:
ELISA Ligand based inhibition of BACE1 activity, Aβ 40 and 42. BACE1 activity, Levels of Aβ40 and 42. To determine whether ligand 1 lowers BACE1 activity and reducing the Aβ40 and Aβ42 levels, the inventors measured BACE1 activity, Aβ40 and Aβ42 levels in mutant APP cells (N2a+mutant cDNA transfected) treated with ligand 1 using Sandwich ELISA.
The N2a cells grown for 6 days in a serum-free medium (1:1 mixture of DMEM and OptiMEM, plus penicillin and streptomycin (Invitrogen, Carlsbad, CA, USA) until the cells developed neuronal processes. As shown in (FIG. 10), these cells were used for 4 groups—one control group and 3 treatment groups. 1) untreated N2a cells (the control group), 2) N2a cells treated with ligand 1 (N2a+ligand 1), 3) N2a cells transfected mAPP with the (lipofectamine) (20 μM final concentration for 6 hrs (mAPP), 4) N2a cells transfected with mAPP cDNA for 6 hrs, treated with ligand 1 (mAPP+ligand 1 treatment group), N2a cells treated with ligand 1 for 24 hrs and then treated with the mAPP cDNA for 6 hrs (ligand 1+mAPP treatment group). […]
ELISA Ligand based BACE1 inhibition of Aβ 40 and 42. […] For each sample, Aβ1-40 and Aβ1-42 were measured with commercial colorimetric ELISA kits (Biosource International, Camarillo, CA, USA) specific for human. […] Protein concentrations of the homogenates were determined following the […], and Aβ was expressed as pg Aβ/mg protein.

Assay [1] concerns N2a cells. Nature of the assay: Cell viability (MTT assay) in N2a cells. The following applies: ligand treated N2a cells relative to untreated cells; P=0.038. Type of assay: cell-based, mouse. The procedure: (§1) The N2a cells grown for 6 days in a serum-free medium (1:1 mixture of DMEM and OptiMEM, plus penicillin and streptomycin (Invitrogen, Carlsbad, CA, USA) until the cells developed neuronal processes. As shown in (FIG. 10), these cells were used for 4 groups—one control group and 3 treatment groups. 1) untreated N2a cells (the control group), 2) N2a cells treated with ligand 1 (N2a+ligand 1), 3) N2a cells transfected mAPP with the (lipofectamine) (20 μM final concentration for 6 hrs (mAPP), 4) N2a cells transfected with mAPP cDNA for 6 hrs, treated with ligand 1 (mAPP+ligand 1 treatment group), N2a cells treated with ligand 1 for 24 hrs and then treated with the mAPP cDNA for 6 hrs (ligand 1+mAPP treatment group). As shown in (FIG. 10), the inventors performed 4 independent cell cultures and treatments for all experiments (n=4).
(§2) Cell viability and apoptotic cell death MTT assay. Ligand 1 treated N2a cells, cell based apoptosis assay was performed using Cellometer Vision CBA Image Cytometry System (Nexcelom Bioscience LLC, Lawrence, MA) with two fluorophore Annexin V-FITC and Propidium Iodide (PI) staining solution, according to manufacturer's instructions. Briefly, cells were harvested using trypsin, then spin down at 300 g for three minutes and pellets were washed with 1×PBS, cells were counted using hematocytometer. […]
(Tetrazolium dyes change colour on reduction, which living cells bring about.)

The subject of assay [2] is mAPP transfected N2a cells. Nature of the assay: Cell viability / apoptotic cell death in mAPP transfected N2a cells. Type of assay: cell-based, mouse. The procedure:
as §1, §2

Assay [3] has as its system N2a cells. Put plainly: Transmission electron microscopy of mitochondrial number and length. Type of assay: cell-based, mouse. The following applies: TEM. From the text:
Transmission electron microscopy. To determine the effects of ligand 1 on the number and length of mitochondria, the inventors used transmission electron microscopy on cells with untreated N2a cells, […], mAPP, and mAPP+ligand 1.
Transmission electron microscopy of mitochondria. To determine the protective effects ligand 1 the number and morphology of mitochondria and the rescue effects of Ligand 1, on Aβ induced mitochondrial toxicity. The inventors conducted transmission electron microscopy (TEM) of N2a cells from control and experimental treatments (n=4). Treated and untreated N2a cells were fixed in 100 mM sodium cacodylate (pH 7.2), 2.5% glutaraldehyde, 1.6% paraformaldehyde, 0.064% picric acid, and 0.1% ruthenium red. They were gently washed and post-fixed for 1 hr in 1% osmium tetroxide plus […] potassium ferricyanide, in 100 mM sodium cacodylate, pH 7.2. After a thorough rinsing in water, the N2a cells were dehydrated, infiltrated overnight in 1:1 acetone:Epon 812, infiltrated for 1 hr with 100% Epon 812 resin, and embedded in the resin. After polymerization, 60- to 80-nm thin sections were cut on a Reichert ultramicrotome and stained for 5 min in lead citrate. […] The numbers of mitochondria were counted in the control N2a cells (number of cells=50) and experimental groups (number of cells per group=40), and statistical significance was determined, using one-way ANOVA.

T1 sequence (P56818 46-501): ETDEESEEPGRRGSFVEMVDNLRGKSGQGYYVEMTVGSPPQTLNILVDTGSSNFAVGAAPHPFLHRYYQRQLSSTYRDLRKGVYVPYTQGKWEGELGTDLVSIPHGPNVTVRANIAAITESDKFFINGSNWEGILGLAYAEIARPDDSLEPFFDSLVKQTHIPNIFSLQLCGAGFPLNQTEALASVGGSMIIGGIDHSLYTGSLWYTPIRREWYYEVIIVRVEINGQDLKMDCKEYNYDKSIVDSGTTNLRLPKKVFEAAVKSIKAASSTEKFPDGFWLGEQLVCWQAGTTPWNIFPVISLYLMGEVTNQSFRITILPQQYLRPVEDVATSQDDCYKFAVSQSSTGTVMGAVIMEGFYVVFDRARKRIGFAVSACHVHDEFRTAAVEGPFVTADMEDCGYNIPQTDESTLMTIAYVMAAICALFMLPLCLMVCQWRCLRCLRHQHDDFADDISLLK

For “[(6As,8S,10aS,12aS)-10a, 12a-dimethyl-2-oxo-3,4,4a,4b,5,6,6a,7,8,9,10,10b,11,12-tetradecahydro-1H-naphtho[2,1-f]quinolin-8-yl] 4-[4-[bis(2-chloroethyl)amino]phenyl]butanoate [Ligand 1]”, the BACE1 activity entry on BACE1 is “significantly lower; also recorded: significantly reduced”. The Cell viability entry with N2a cells [1] is “significantly increased”; in assay [2] (mAPP+ligand 1 compared to mAPP cells, P=0.181), “not significantly increased”. The Apoptotic cell death entry in assay [2] (mAPP transfected cells) is “reduced”. Further, in the assay with N2a cells [3] (cells treated with ligand 1 relative to untreated cells), the Mitochondrial length result is “significantly increased”. Moreover, the Number of mitochondria result with N2a cells [3] (mAPP+ligand 1 vs mAPP cells, P=0.01) is given as “reduced”.
